Calls of active or inactive are those of the source. The calls are words filed in the database; no cut-off is given here.
Key:
[1] = Agonist activity at delta opioid receptor in mouse/rat DRGF11 hybrid cells expressing GFP assessed as induction of ERK1/2 phosphorylation at 10^-9 to 10^-5 M after 5 mins by Western blotting analysis
[2] = target: Delta-type opioid receptor (Mus musculus, UniProt P32300); test: Agonist activity at delta opioid receptor in mouse vas deferens assessed as inhibition of electrically-stimulated muscle contraction
Sequence of Delta-type opioid receptor (Mus musculus, UniProt P32300) (P32300 whole entry): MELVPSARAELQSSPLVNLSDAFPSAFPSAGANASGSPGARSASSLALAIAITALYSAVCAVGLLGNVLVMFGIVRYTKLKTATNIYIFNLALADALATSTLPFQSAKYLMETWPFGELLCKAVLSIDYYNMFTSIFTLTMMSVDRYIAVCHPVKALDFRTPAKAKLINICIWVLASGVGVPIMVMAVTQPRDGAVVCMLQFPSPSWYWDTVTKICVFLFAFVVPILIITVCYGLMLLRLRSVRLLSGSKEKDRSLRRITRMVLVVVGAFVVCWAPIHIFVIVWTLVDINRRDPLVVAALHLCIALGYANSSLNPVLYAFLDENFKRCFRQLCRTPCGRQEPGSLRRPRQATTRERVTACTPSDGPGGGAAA

[3] = target: Delta-type opioid receptor (Rattus norvegicus, UniProt P33533); test: Displacement of [3H]-deltorphin 2 from delta opioid receptor in rat GH3 cells after 60 mins by scintillation counting analysis; format: cell-based
Sequence of Delta-type opioid receptor (Rattus norvegicus, UniProt P33533) (P33533 whole entry): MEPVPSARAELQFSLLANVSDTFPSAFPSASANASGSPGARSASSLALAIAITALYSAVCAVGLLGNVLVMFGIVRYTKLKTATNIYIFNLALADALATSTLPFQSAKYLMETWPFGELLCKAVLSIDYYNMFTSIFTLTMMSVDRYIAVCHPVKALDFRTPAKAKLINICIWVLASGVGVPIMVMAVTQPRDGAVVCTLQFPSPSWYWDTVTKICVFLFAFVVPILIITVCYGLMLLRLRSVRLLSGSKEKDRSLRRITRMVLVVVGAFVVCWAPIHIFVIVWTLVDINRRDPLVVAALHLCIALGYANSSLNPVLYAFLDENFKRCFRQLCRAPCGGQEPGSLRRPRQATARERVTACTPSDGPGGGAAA

Structure (SMILES)	Activity [1]	EC50 [2] [nM]	Ki [3] [nM]
CC(C)C[C@@H](C(=O)O)n1cc([C@H](Cc2ccccc2)NC(=O)CNC(=O)CNC(=O)[C@@H](N)Cc2ccc(O)cc2)nn1	Active	830	89
CC(C)C[C@H](NC(=O)[C@H](Cc1ccccc1)NC(=O)Cn1cc(CNC(=O)[C@@H](N)Cc2ccc(O)cc2)nn1)C(=O)O	–	> 1500	> 1000
CC(C)C[C@H](NC(=O)[C@H](Cc1ccccc1)NC(=O)CNC(=O)Cn1cc([C@@H](N)Cc2ccc(O)cc2)nn1)C(=O)O	–	> 1500	> 1000
CC(C)C[C@H](NC(=O)[C@H](Cc1ccccc1)n1cc(CNC(=O)CNC(=O)[C@@H](N)Cc2ccc(O)cc2)nn1)C(=O)O	–	> 1500	460

From ChEMBL document CHEMBL2429799, “Systematic replacement of amides by 1,4-disubstituted[1,2,3]triazoles in Leu-enkephalin and the impact on the delta opioid receptor activity” (Bioorg Med Chem Lett, 2013)
